{"source": "patent US11098042B2", "about": "“Inhibitors of influenza virus replication and uses thereof” (SUNSHINE LAKE PHARMA CO., LTD., priority 2017, dated 2021)", "key": {"[1]": {"tested_on": "virus H1N1 A/Weiss/43", "test": "microbe, parasite or virus in culture", "assay_type": "cell-based", "conditions": "Influenza A virus, 120 h; inhibition of CPE of H1N1 A/Weiss/43 in MDCK cells, 5 days, CCK-8"}, "[2]": {"test": "in vivo", "conditions": "Sprague-Dawley (SD), rat", "procedure": "Pharmacokinetic characteristics of the compounds of the invention in SD rat were evaluated. The compounds disclosed herein were administered in form of a saline solution containing 5% DMSO, 5% Kolliphor HS 15 and 90% Saline. For intravenous administration (iv), the animals were administered with a dose of 1 mg/kg, and blood samples (0.3 mL) were collected at the time points of 0.083, 0.25, 0.5, 1.0, 2.0, 5.0, 7.0 and 24 h after drug administration, then each blood sample was processed to separate plasma by centrifugation at 3000 rpm or 4000 rpm for 10 minutes. […] Plasma samples were collected and stored at −20° C. or −70° C. until LC/MS/MS analysis."}}, "data": [{"smiles": "CC(C)(C)[C@@H](CC(=O)O)Nc1nc(-c2n[nH]c3ncc(Cl)cc23)nc(-c2ccco2)c1F", "note": "[Example 4, (R)-3-((2-(5-chloro-1H-pyrazolo[3,4-b]pyridin-3-yl)-5-fluoro-6-(furan-2-yl)pyrimidin-4-yl)amino)-4,4-dimethylpentanoic Acid]", "values": [{"measurement": "EC50", "setting": "[1]", "result": 0.075, "unit": "nM"}]}, {"smiles": "O=C(O)[C@H]1C2CCC(CC2)[C@@H]1Nc1cc(-c2ccc(C3CC3)o2)nc(-c2n[nH]c3ncc(F)cc23)n1", "note": "[Example 15, (2S,3S)-3-((6-(5-cyclopropylfuran-2-yl)-2-(5-fluoro-1H-pyrazolo[3,4-b]pyridin-3-yl)pyrimidin-4-yl)amino)bicyclo[2.2.2]octane-2-carboxylic Acid]", "values": [{"measurement": "EC50", "setting": "[1]", "result": 0.303, "unit": "nM"}]}, {"smiles": "O=C(O)C1C2CCC(CC2)C1Nc1nc(-c2n[nH]c3ncc(Cl)cc23)nc(-c2ccco2)c1F", "note": "(racemic) [Example 2, (+/−)-trans-3-((2-(5-chloro-1H-pyrazolo[3,4-b]pyridin-3-yl)-5-fluoro-6-(furan-2-yl)pyrimidin-4-yl)amino)bicyclo[2.2.2]octane-2-carboxylic Acid]", "values": [{"measurement": "EC50", "setting": "[1]", "result": 0.054, "unit": "nM"}, {"measurement": "AUC(0-inf)", "setting": "[2]; iv, 1 mg/kg", "result": 910, "unit": "ng·h/mL"}, {"measurement": "AUC(0-t)", "setting": "[2]; iv, 1 mg/kg", "result": 909, "unit": "ng·h/mL"}, {"measurement": "clearance", "setting": "[2]; iv, 1 mg/kg", "result": 18.5, "unit": "mL/min/kg"}, {"measurement": "AUC(0-inf)", "setting": "[2]; po, 5 mg/kg", "result": 1060, "unit": "ng·h/mL"}, {"measurement": "AUC(0-t)", "setting": "[2]; po, 5 mg/kg", "result": 1060, "unit": "ng·h/mL"}]}, {"smiles": "O=C(O)C1C2CCC(CC2)C1Nc1cc(C2CC2)nc(-c2n[nH]c3ncc(Cl)cc23)n1", "note": "(racemic) [Example 30, (+/−)-trans-3-((2-(5-chloro-1H-pyrazolo[3,4-b]pyridin-3-yl)-6-cyclopropylpyrimidin-4-yl)amino)bicyclo[2.2.2]octane-2-carboxylic Acid]", "values": [{"measurement": "EC50", "setting": "[1]", "result": 0.35, "unit": "nM"}]}, {"smiles": "Cn1ccc2c(NC3C4CCC(CC4)C3C(=O)O)nc(-c3n[nH]c4ncc(Cl)cc34)nc21", "note": "(racemic) [Example 3, (+/−)-trans-3-((2-(5-chloro-1H-pyrazolo[3,4-b]pyridin-3-yl)-7-methyl-7H-pyrrolo[2,3-d]pyrimidin-4-yl)amino)bicyclo[2.2.2]octane-2-carboxylic Acid]", "values": [{"measurement": "EC50", "setting": "[1]", "result": 0.39, "unit": "nM"}]}, {"smiles": "O=C(O)C1C2CCC(CC2)C1Nc1cc(-c2cc3ccccc3o2)nc(-c2n[nH]c3ncc(Cl)cc23)n1", "note": "(racemic) [Example 14, (+/−)-trans-3-((6-(benzofuran-2-yl)-2-(5-chloro-1H-pyrazolo[3,4-b]pyridin-3-yl)pyrimidin-4-yl)amino)bicyclo[2.2.2]octane-2-carboxylic Acid]", "values": [{"measurement": "EC50", "setting": "[1]", "result": 0.696, "unit": "nM"}]}, {"smiles": "CC(C)n1ccc2c(N[C@H]3C4CCC(CC4)[C@@H]3C(=O)O)nc(-c3n[nH]c4ncc(F)cc34)nc21", "note": "[Example 34, (2S,3S)-3-((2-(5-fluoro-1H-pyrazolo[3,4-b]pyridin-3-yl)-7-isopropyl-7H-pyrrolo[2,3-d]pyrimidin-4-yl)amino)bicyclo[2.2.2]octane-2-carboxylic Acid]", "values": [{"measurement": "EC50", "setting": "[1]", "result": 0.227, "unit": "nM"}]}, {"smiles": "O=C(O)C1C2CCC(CC2)C1Nc1cc(-c2ccco2)nc(-c2n[nH]c3ncc(Cl)cc23)n1", "note": "(racemic) [Example 1, (+/−)-trans-3-((2-(5-chloro-1H-pyrazolo[3,4-b]pyridin-3-yl)-6-(furan-2-yl)pyrimidin-4-yl)amino)bicyclo[2.2.2]octane-2-carboxylic Acid]", "values": [{"measurement": "EC50", "setting": "[1]", "result": 0.059, "unit": "nM"}]}, {"smiles": "O=C(O)C1C2CCC(CC2)C1Nc1cc(-c2cccs2)nc(-c2n[nH]c3ncc(Cl)cc23)n1", "note": "(racemic) [Example 29, (+/−)-trans-3-((2-(5-chloro-1H-pyrazolo[3,4-b]pyridin-3-yl)-6-(thiophen-2-yl)pyrimidin-4-yl)amino)bicyclo[2.2.2]octane-2-carboxylic Acid]", "values": [{"measurement": "EC50", "setting": "[1]", "result": 0.203, "unit": "nM"}]}, {"smiles": "O=C(O)C1C2CCC(CC2)C1Nc1cc(-c2ccc3ccccc3c2)nc(-c2n[nH]c3ncc(Cl)cc23)n1", "note": "(racemic) [Example 31, (+/−)-trans-3-((2-(5-chloro-1H-pyrazolo[3,4-b]pyridin-3-yl)-6-(naphthalene-2-yl)pyrimidin-4-yl)amino)bicyclo[2.2.2]octane-2-carboxylic Acid]", "values": [{"measurement": "EC50", "setting": "[1]", "result": 0.513, "unit": "nM"}]}, {"smiles": "O=C(O)C1C2CCC(CC2)C1Nc1cc(-c2ccccc2)nc(-c2n[nH]c3ncc(Cl)cc23)n1", "note": "(racemic) [Example 16, (+/−)-trans-3-((2-(5-chloro-1H-pyrazolo[3,4-b]pyridin-3-yl)-6-phenylpyrimidin-4-yl)amino)bicyclo[2.2.2]octane-2-carboxylic Acid]", "values": [{"measurement": "EC50", "setting": "[1]", "result": 0.14, "unit": "nM"}]}]}
